Where “and” joins values, the source holds several entries; their conditions need not be identical. Equal values may be shown once. Toxic doses and inconclusive results are not listed. The calls were made as follows: active = survival T/C of 150% or more; inactive = T/C below 125% in these data.
System: P388 leukemia ip, CD2F1 mice, survival T/C
Assay: NCI In Vivo Anticancer Drug Screen. Data for tumor model P388 Leukemia (intraperitoneal) in CD2F1 (CDF1) mice
Conditions: endpoint: median survival time, higher = longer survival
Summary of the method: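 Mice carrying the transplanted tumor received test compound or vehicle. Survival was recorded in each group, and the value is the treated-group measurement divided by that of the vehicle-treated control group.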

[1] = dose: 50.0 mg/kg/injection, schedule: Q01DX005 (ip), vehicle: saline
[2] = dose: 100.0 mg/kg/injection, schedule: Q01DX005 (ip), vehicle: saline
[3] = dose: 200.0 mg/kg/injection, schedule: Q01DX005 (ip), vehicle: saline
[4] = dose: 100.0 mg/kg/injection, schedule: Q01DX001 (ip), vehicle: Klucel (hydroxypropylcellulose) (HPC)
[5] = dose: 200.0 mg/kg/injection, schedule: Q01DX001 (ip), vehicle: Klucel (hydroxypropylcellulose) (HPC)
[6] = dose: 400.0 mg/kg/injection, schedule: Q01DX001 (ip), vehicle: Klucel (hydroxypropylcellulose) (HPC)

Measured: T/C

CCOC(=O)c1cc2c(nn3c(C)cccc23)n(CC)c1=N
inactive: dose: 3.12 mg/kg/injection, schedule: Q01DX001 (ip), vehicle: saline 100 % of control and 101 % of control | dose: 6.25 mg/kg/injection, schedule: Q01DX001 (ip), vehicle: saline 101 % of control and 105 % of control | dose: 12.5 mg/kg/injection, schedule: Q01DX001 (ip), vehicle: saline 100 % of control and 98 % of control | dose: 25.0 mg/kg/injection, schedule: Q01DX001 (ip), vehicle: saline 103 % of control and 93 % of control

NC(=S)C(F)(F)F
inactive: dose: 75.0 mg/kg/injection, schedule: Q01DX001 (ip), vehicle: saline with Tween-80 103 % of control | dose: 150.0 mg/kg/injection, schedule: Q01DX001 (ip), vehicle: saline with Tween-80 113 % of control | dose: 300.0 mg/kg/injection, schedule: Q01DX001 (ip), vehicle: saline with Tween-80 103 % of control

CC1(CCC(=O)c2ccc3c(c2)OCO3)OCCO1
inactive: dose: 60.0 mg/kg/injection, schedule: Q01DX005 (ip), vehicle: saline with Tween-80 116 % of control | dose: 120.0 mg/kg/injection, schedule: Q01DX005 (ip), vehicle: saline with Tween-80 105 % of control | dose: 240.0 mg/kg/injection, schedule: Q01DX005 (ip), vehicle: saline with Tween-80 100 % of control

COc1ccc2c(c1[N+](=O)[O-])CCCCC2=O
inactive: dose: 100.0 mg/kg/injection, schedule: Q01DX009 (sc), vehicle: olive oil, sesame oil, peanut oil 104 % of control | dose: 200.0 mg/kg/injection, schedule: Q01DX009 (sc), vehicle: olive oil, sesame oil, peanut oil 95 % of control | dose: 400.0 mg/kg/injection, schedule: Q01DX009 (sc), vehicle: olive oil, sesame oil, peanut oil 107 % of control

CCCC(O)CCC(O)=C1C(=O)CCC1=O (configuration not stated)
inactive: [1] 107 % of control | [2] 107 % of control | [3] 107 % of control

CCOC(=O)C(OCC)C1=Cc2ccccc2CC1 (configuration not stated)
inactive: dose: 25.0 mg/kg/injection, schedule: Q01DX001 (ip), vehicle: Klucel (hydroxypropylcellulose) (HPC) 93 % of control | dose: 50.0 mg/kg/injection, schedule: Q01DX001 (ip), vehicle: Klucel (hydroxypropylcellulose) (HPC) 100 % of control | [4] 93 % of control | [5] 102 % of control | [6] 107 % of control

COC(C(=O)O)(c1ccccc1)C(F)(F)F (configuration not stated)
inactive: dose: 60.0 mg/kg/injection, schedule: Q01DX005 (ip), vehicle: saline 100 % of control | dose: 120.0 mg/kg/injection, schedule: Q01DX005 (ip), vehicle: saline 109 % of control

CC(C)NC(=O)OCc1c(COC(=O)NC(C)C)c([N+](=O)[O-])n2c1CCC2
inactive: dose: 25.0 mg/kg/injection, schedule: Q01DX005 (ip), vehicle: Klucel (hydroxypropylcellulose) (HPC) 95 % of control | dose: 50.0 mg/kg/injection, schedule: Q01DX005 (ip), vehicle: Klucel (hydroxypropylcellulose) (HPC) 99 % of control | dose: 100.0 mg/kg/injection, schedule: Q01DX005 (ip), vehicle: Klucel (hydroxypropylcellulose) (HPC) 99 % of control and 97 % of control | dose: 200.0 mg/kg/injection, schedule: Q01DX005 (ip), vehicle: Klucel (hydroxypropylcellulose) (HPC) 104 % of control and 94 % of control | dose: 400.0 mg/kg/injection, schedule: Q01DX005 (ip), vehicle: Klucel (hydroxypropylcellulose) (HPC) 100 % of control

COC1=CC(=O)C(O)=C(CC2(C)C(C)CCC3(C)C2CCCC3(C)C)C1=O (configuration not stated)
inactive: dose: 50.0 mg/kg/injection, schedule: Q01DX009 (ip), vehicle: Klucel (hydroxypropylcellulose) (HPC) 112 % of control | dose: 100.0 mg/kg/injection, schedule: Q01DX009 (ip), vehicle: Klucel (hydroxypropylcellulose) (HPC) 112 % of control

CN1NC(c2ccccc2)NN(C)C1=O
inactive: [1] 97 % of control | [2] 99 % of control | [3] 106 % of control

CCOC(=O)[C]1([Bi]([CH3])[CH3])N=NC(C(=O)OC)=C1C(=O)OC (configuration not stated)
inactive: dose: 25.0 mg/kg/injection, schedule: Q04DX003 (ip), vehicle: saline 93 % of control | dose: 50.0 mg/kg/injection, schedule: Q04DX003 (ip), vehicle: saline 97 % of control | dose: 100.0 mg/kg/injection, schedule: Q04DX003 (ip), vehicle: saline with Tween-80 99 % of control

Nc1nnn(-c2ccccc2)n1
inactive: [4] 102 % of control | [5] 101 % of control | [6] 102 % of control

CC1(C)c2ccccc2-c2nc3ccccc3cc2C1(Br)Br
inactive: dose: 50.0 mg/kg/injection, schedule: Q01DX005 (ip), vehicle: saline with Tween-80 105 % of control | dose: 100.0 mg/kg/injection, schedule: Q01DX005 (ip), vehicle: saline with Tween-80 110 % of control | dose: 200.0 mg/kg/injection, schedule: Q01DX005 (ip), vehicle: saline with Tween-80 120 % of control

Source: PubChem BioAssay AID330 (DTP/NCI, 2004)
